Laboratory results as given in the NIST ThermoML archive (doi:10.1016/j.jct.2017.03.026).
Where “and” joins values, the source holds several entries; their conditions need not be identical. Equal values may be shown once.

Test: molar heat capacity at constant pressure
Settings: 101.33 kPa, Crystal, Small (less than 1 g) adiabatic calorimetry

O.O.O.O.O.O=S(=O)([O-])[O-].[Cu+2] [copper(II) sulfate pentahydrate]
Settings	molar heat capacity at constant pressure
4.261 K	0.5156 J/K/mol
4.305 K	0.5483 J/K/mol
4.311 K	0.5046 J/K/mol
4.335 K	0.5159 J/K/mol
4.395 K	0.5368 J/K/mol
4.524 K	0.5196 J/K/mol
4.539 K	0.5173 J/K/mol
4.569 K	0.4829 J/K/mol
4.583 K	0.5241 J/K/mol
4.777 K	0.4969 J/K/mol
4.798 K	0.4984 J/K/mol
4.823 K	0.4929 J/K/mol
4.824 K	0.4432 J/K/mol
4.978 K	0.5029 J/K/mol
5 K	0.4962 J/K/mol
5.069 K	0.4964 J/K/mol
5.082 K	0.4427 J/K/mol
5.104 K	0.4944 J/K/mol
5.177 K	0.4896 J/K/mol
5.342 K	0.4946 J/K/mol
5.372 K	0.4889 J/K/mol
5.378 K	0.4929 J/K/mol
5.56 K	0.4939 J/K/mol
5.621 K	0.4969 J/K/mol
5.651 K	0.4969 J/K/mol
5.749 K	0.4906 J/K/mol
5.9 K	0.5111 J/K/mol
5.914 K	0.4479 J/K/mol
5.925 K	0.5016 J/K/mol
5.937 K	0.4989 J/K/mol
6.172 K	0.5019 J/K/mol
6.291 K	0.5248 J/K/mol
6.303 K	0.5186 J/K/mol and 0.4587 J/K/mol
6.448 K	0.5358 J/K/mol
6.726 K	0.5553 J/K/mol
6.774 K	0.5665 J/K/mol
6.778 K	0.5585 J/K/mol
6.783 K	0.4881 J/K/mol
7.002 K	0.5855 J/K/mol
7.249 K	0.6135 J/K/mol
7.254 K	0.6117 J/K/mol
7.273 K	0.6282 J/K/mol
7.547 K	0.6634 J/K/mol
7.713 K	0.7001 J/K/mol
7.723 K	0.6939 J/K/mol
7.725 K	0.6355 J/K/mol
7.824 K	0.7166 J/K/mol
8.096 K	0.7788 J/K/mol
8.182 K	0.7853 J/K/mol
8.189 K	0.786 J/K/mol
8.19 K	0.7356 J/K/mol
8.371 K	0.8474 J/K/mol
8.632 K	0.9011 J/K/mol
8.65 K	0.9014 J/K/mol and 0.8412 J/K/mol
8.653 K	0.8934 J/K/mol
8.928 K	0.968 J/K/mol
9.09 K	1.043 J/K/mol
9.107 K	0.9518 J/K/mol
9.116 K	1.028 J/K/mol
9.204 K	1.057 J/K/mol
9.48 K	1.134 J/K/mol
9.555 K	1.149 J/K/mol
9.563 K	1.103 J/K/mol
9.583 K	1.165 J/K/mol
9.756 K	1.2 J/K/mol
10 K	1.299 J/K/mol
10.02 K	1.297 J/K/mol and 1.25 J/K/mol
10.03 K	1.306 J/K/mol
10.05 K	1.315 J/K/mol
10.4 K	1.456 J/K/mol
10.7 K	1.569 J/K/mol
10.71 K	1.536 J/K/mol
10.77 K	1.6 J/K/mol
10.86 K	1.634 J/K/mol
11.32 K	1.835 J/K/mol
11.62 K	1.99 J/K/mol
11.63 K	1.944 J/K/mol
11.7 K	2.014 J/K/mol
11.78 K	2.059 J/K/mol
12.24 K	2.283 J/K/mol
12.54 K	2.453 J/K/mol
12.55 K	2.432 J/K/mol
12.62 K	2.5 J/K/mol
12.7 K	2.533 J/K/mol
13.16 K	2.801 J/K/mol
13.47 K	3.01 J/K/mol and 3.006 J/K/mol
13.55 K	3.048 J/K/mol
13.62 K	3.099 J/K/mol
14.09 K	3.404 J/K/mol
14.24 K	3.51 J/K/mol
14.39 K	3.63 J/K/mol
14.4 K	3.652 J/K/mol
14.48 K	3.676 J/K/mol
14.55 K	3.735 J/K/mol
15 K	4.062 J/K/mol
15.33 K	4.33 J/K/mol and 4.316 J/K/mol and 4.374 J/K/mol
16.27 K	5.102 J/K/mol and 5.148 J/K/mol
16.34 K	5.147 J/K/mol
17.21 K	5.92 J/K/mol
17.22 K	5.985 J/K/mol
17.34 K	6.038 J/K/mol
18.16 K	6.788 J/K/mol
18.17 K	6.865 J/K/mol
18.34 K	6.974 J/K/mol
19.12 K	7.738 J/K/mol and 7.803 J/K/mol
19.34 K	7.95 J/K/mol
20 K	8.662 J/K/mol
20.07 K	8.711 J/K/mol
20.08 K	8.781 J/K/mol
20.34 K	8.968 J/K/mol
21.52 K	10.37 J/K/mol and 10.5 J/K/mol
21.84 K	10.73 J/K/mol
22.86 K	11.97 J/K/mol
23.43 K	12.81 J/K/mol
23.44 K	12.67 J/K/mol
23.8 K	13.12 J/K/mol
23.86 K	13.21 J/K/mol
24.84 K	14.42 J/K/mol
25 K	14.64 J/K/mol
25.35 K	15.41 J/K/mol
25.49 K	15.25 J/K/mol
25.75 K	15.84 J/K/mol
25.81 K	15.7 J/K/mol
26.5 K	16.59 J/K/mol
26.79 K	16.97 J/K/mol
27.28 K	18.19 J/K/mol
27.48 K	17.9 J/K/mol
27.72 K	18.24 J/K/mol
27.77 K	18.33 J/K/mol
28.45 K	19.31 J/K/mol
28.75 K	19.73 J/K/mol
29.23 K	20.9 J/K/mol
29.43 K	20.68 J/K/mol
29.7 K	21.26 J/K/mol
29.73 K	21.15 J/K/mol
30 K	21.51 J/K/mol
30.41 K	22.11 J/K/mol
30.7 K	22.53 J/K/mol
31.22 K	23.13 J/K/mol
31.39 K	23.59 J/K/mol
31.68 K	24.03 J/K/mol and 23.15 J/K/mol
32.37 K	25.14 J/K/mol
32.66 K	25.56 J/K/mol
33.19 K	26.4 J/K/mol
33.35 K	26.55 J/K/mol
33.65 K	27.01 J/K/mol
33.66 K	26.86 J/K/mol
34.34 K	28.1 J/K/mol
34.62 K	28.57 J/K/mol
35 K	29.13 J/K/mol
35.15 K	29.64 J/K/mol
35.31 K	29.65 J/K/mol
35.61 K	30.07 J/K/mol
35.64 K	30.19 J/K/mol
36.17 K	31.27 J/K/mol
36.26 K	31.26 J/K/mol
36.29 K	31.18 J/K/mol
36.59 K	31.76 J/K/mol
37.11 K	32.81 J/K/mol
37.27 K	32.75 J/K/mol
37.57 K	33.3 J/K/mol
37.61 K	33.52 J/K/mol
38.25 K	34.37 J/K/mol
38.34 K	34.7 J/K/mol
38.38 K	34.84 J/K/mol
38.55 K	34.93 J/K/mol
39.23 K	35.95 J/K/mol
39.54 K	36.51 J/K/mol
40 K	37.15 J/K/mol
40.22 K	37.51 J/K/mol
40.31 K	37.77 J/K/mol
40.35 K	37.93 J/K/mol
41.2 K	39.02 J/K/mol
42.19 K	40.35 J/K/mol
42.29 K	40.63 J/K/mol
42.32 K	41.04 J/K/mol
43.17 K	41.93 J/K/mol
44.16 K	43.29 J/K/mol
44.27 K	43.38 J/K/mol
44.29 K	44.04 J/K/mol
45 K	44.39 J/K/mol
45.14 K	44.61 J/K/mol
46.12 K	45.87 J/K/mol
46.25 K	46.08 J/K/mol
46.27 K	47.03 J/K/mol
47.11 K	47.24 J/K/mol
48.1 K	48.62 J/K/mol
48.23 K	48.95 J/K/mol
48.24 K	49.93 J/K/mol
49.08 K	50.18 J/K/mol
50 K	51.93 J/K/mol
50.07 K	52.01 J/K/mol
50.21 K	52.31 J/K/mol
50.22 K	52.88 J/K/mol
51.06 K	53.89 J/K/mol
52.04 K	55.62 J/K/mol
52.19 K	55.66 J/K/mol and 55.74 J/K/mol
53.03 K	57.23 J/K/mol
54.02 K	58.82 J/K/mol
54.17 K	58.74 J/K/mol
54.18 K	58.73 J/K/mol
55 K	60.26 J/K/mol and 60.19 J/K/mol
55.99 K	61.63 J/K/mol
56.15 K	61.82 J/K/mol
56.16 K	61.65 J/K/mol
56.98 K	62.69 J/K/mol
57.97 K	63.82 J/K/mol
58.14 K	64.89 J/K/mol
58.15 K	64.47 J/K/mol
58.96 K	65.23 J/K/mol
59.95 K	66.92 J/K/mol
60 K	66.98 J/K/mol
60.12 K	67.94 J/K/mol
60.14 K	67.3 J/K/mol
60.93 K	68.42 J/K/mol
61.92 K	69.94 J/K/mol
62.11 K	70.89 J/K/mol
62.13 K	70.09 J/K/mol
62.92 K	71.4 J/K/mol
63.91 K	72.71 J/K/mol
64.1 K	73.66 J/K/mol
64.13 K	72.85 J/K/mol
64.9 K	74 J/K/mol
65 K	74.12 J/K/mol
65.89 K	75.34 J/K/mol
66.1 K	76.33 J/K/mol
66.12 K	75.65 J/K/mol
66.89 K	76.71 J/K/mol
67.88 K	78.07 J/K/mol
68.09 K	78.22 J/K/mol and 78.9 J/K/mol
68.88 K	79.31 J/K/mol
69.87 K	80.54 J/K/mol
70 K	80.85 J/K/mol and 80.84 J/K/mol
70.08 K	81.47 J/K/mol
71.87 K	83.38 J/K/mol
72.45 K	84.21 J/K/mol
72.58 K	84.91 J/K/mol
74.88 K	87.18 J/K/mol
75 K	87.24 J/K/mol
75.45 K	87.98 J/K/mol
75.59 K	88.72 J/K/mol
77.89 K	90.83 J/K/mol
77.95 K	91.36 J/K/mol
78.48 K	91.71 J/K/mol
79.11 K	92.21 J/K/mol
79.15 K	92.84 J/K/mol
79.36 K	93.03 J/K/mol
80 K	93.33 J/K/mol
80.16 K	93.95 J/K/mol
80.92 K	94.52 J/K/mol
81.18 K	95.24 J/K/mol
81.51 K	95.36 J/K/mol
82.2 K	96.42 J/K/mol
82.48 K	96.2 J/K/mol
82.91 K	97.32 J/K/mol
83.22 K	97.59 J/K/mol
84.24 K	98.9 J/K/mol
85 K	99.12 J/K/mol
85.26 K	100.17 J/K/mol
85.52 K	99.69 J/K/mol
85.95 K	100.9 J/K/mol
86.12 K	100.4 J/K/mol
86.28 K	101.27 J/K/mol
87.26 K	101.63 J/K/mol
87.3 K	102.49 J/K/mol
88.08 K	103.41 J/K/mol
88.28 K	102.83 J/K/mol
88.33 K	103.67 J/K/mol
88.57 K	103.19 J/K/mol
89 K	104.46 J/K/mol
89.31 K	103.96 J/K/mol
89.36 K	104.73 J/K/mol
89.57 K	104.25 J/K/mol
90 K	104.7 J/K/mol
90.33 K	105.21 J/K/mol
90.39 K	105.94 J/K/mol
90.76 K	106.39 J/K/mol
91.36 K	106.32 J/K/mol
91.43 K	107.16 J/K/mol
91.62 K	106.68 J/K/mol
91.84 K	106.75 J/K/mol
92.05 K	107.96 J/K/mol
92.39 K	107.49 J/K/mol
92.47 K	108.25 J/K/mol
93.36 K	109.28 J/K/mol
93.42 K	108.59 J/K/mol
93.5 K	109.47 J/K/mol
93.89 K	109.02 J/K/mol
94.46 K	109.82 J/K/mol
94.55 K	110.67 J/K/mol
94.68 K	110.09 J/K/mol
95 K	110.3 J/K/mol
95.12 K	111.38 J/K/mol
95.49 K	110.97 J/K/mol
95.59 K	111.73 J/K/mol
95.94 K	111.25 J/K/mol
95.97 K	112.11 J/K/mol
96.53 K	111.9 J/K/mol
96.63 K	112.87 J/K/mol
97.56 K	113.1 J/K/mol
97.68 K	113.95 J/K/mol
97.74 K	113.41 J/K/mol
97.98 K	113.44 J/K/mol
98.19 K	114.68 J/K/mol
98.58 K	114.96 J/K/mol
98.6 K	114.41 J/K/mol
98.72 K	115.17 J/K/mol
99.65 K	115.37 J/K/mol
99.77 K	116.31 J/K/mol
100 K	115.7 J/K/mol
100.03 K	115.65 J/K/mol
100.69 K	116.49 J/K/mol
100.81 K	117.42 J/K/mol
100.82 K	116.62 J/K/mol
101.2 K	117.71 J/K/mol
101.27 K	117.92 J/K/mol
